Source: ChEMBL document CHEMBL1201861, “Genomics of Drug Sensitity in Cancer screening data, Wellcome Trust Sanger Institute”

test system: NCI-H1563; experiment: cells; format: functional, cell-based; settings: Homo sapiens;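 further: growth inhibition of human NCI-H1563 cells, read out with a cell viability assay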
Description: SANGER: Inhibition of human NCI-H1563 cell growth in a cell viability assay.

Compound | IC50 [µM]
OC[C@H](Cc1ccccc1)Nc1nc(Oc2ccc3c(c2)CCC3)nc2c1ncn2Cc1ccc(-c2ccccc2)cc1 | > 10.2

test system: CP50-MEL-B; experiment: cells; format: functional, cell-based; settings: Homo sapiens;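 further: growth inhibition of the human cell line, measured with a cell viability read-out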
Description: SANGER: Inhibition of human CP50-MEL-B cell growth in a cell viability assay.

Compound | IC50 [µM]
OC[C@H](Cc1ccccc1)Nc1nc(Oc2ccc3c(c2)CCC3)nc2c1ncn2Cc1ccc(-c2ccccc2)cc1 | > 10.2

test system: KOSC-2; experiment: cells; format: functional, cell-based; settings: Homo sapiens;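 further: growth inhibition of KOSC-2 cells, read out by a cell viability assay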
Description: SANGER: Inhibition of human KOSC-2 cell growth in a cell viability assay.

Compound | IC50 [µM]
OC[C@H](Cc1ccccc1)Nc1nc(Oc2ccc3c(c2)CCC3)nc2c1ncn2Cc1ccc(-c2ccccc2)cc1 | > 10.2

test system: SAS; experiment: cells; format: functional, cell-based; settings: Homo sapiens;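 further: growth inhibition of SAS cells, read out with a cell viability assay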
Description: SANGER: Inhibition of human SAS cell growth in a cell viability assay.

Compound | IC50 [µM]
OC[C@H](Cc1ccccc1)Nc1nc(Oc2ccc3c(c2)CCC3)nc2c1ncn2Cc1ccc(-c2ccccc2)cc1 | 4.8

test system: KYSE-180; experiment: cells; format: functional, cell-based; settings: Homo sapiens;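 further: growth inhibition of KYSE-180 cells, read out with a cell viability assay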
Description: SANGER: Inhibition of human KYSE-180 cell growth in a cell viability assay.

Compound | IC50 [µM]
OC[C@H](Cc1ccccc1)Nc1nc(Oc2ccc3c(c2)CCC3)nc2c1ncn2Cc1ccc(-c2ccccc2)cc1 | > 10.2

test system: COLO-792; experiment: cells; format: functional, cell-based; settings: Homo sapiens
Description: SANGER: Inhibition of human COLO-792 cell growth in a cell viability assay.

Compound | IC50 [µM]
OC[C@H](Cc1ccccc1)Nc1nc(Oc2ccc3c(c2)CCC3)nc2c1ncn2Cc1ccc(-c2ccccc2)cc1 | 4.79

test system: MDA-MB-361; experiment: cells; format: functional, cell-based; settings: Homo sapiens

Compound | IC50 [µM]
OC[C@H](Cc1ccccc1)Nc1nc(Oc2ccc3c(c2)CCC3)nc2c1ncn2Cc1ccc(-c2ccccc2)cc1 | > 10.2

test system: SK-LU-1; experiment: cells; format: functional, cell-based; settings: Homo sapiens;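 further: cell viability assay measuring growth inhibition of human SK-LU-1 cells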
Description: SANGER: Inhibition of human SK-LU-1 cell growth in a cell viability assay.

Compound | IC50 [µM]
OC[C@H](Cc1ccccc1)Nc1nc(Oc2ccc3c(c2)CCC3)nc2c1ncn2Cc1ccc(-c2ccccc2)cc1 | > 10.2

test system: TE-15; experiment: cells; format: functional, cell-based, Homo sapiens; settings: Homo sapiens, TE-15;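 further: cell viability readout of growth inhibition in TE-15 cells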
Description: SANGER: Inhibition of human TE-15 cell growth in a cell viability assay.

Compound | IC50 [µM]
OC[C@H](Cc1ccccc1)Nc1nc(Oc2ccc3c(c2)CCC3)nc2c1ncn2Cc1ccc(-c2ccccc2)cc1 | > 10.2

test system: NCI-H650; experiment: cells; format: functional, cell-based; settings: Homo sapiens;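 further: growth inhibition of NCI-H650 cells, read out by a viability assay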
Description: SANGER: Inhibition of human NCI-H650 cell growth in a cell viability assay.

Compound | IC50 [µM]
OC[C@H](Cc1ccccc1)Nc1nc(Oc2ccc3c(c2)CCC3)nc2c1ncn2Cc1ccc(-c2ccccc2)cc1 | 7.39

test system: KYSE-450; experiment: cells; format: functional, cell-based; settings: Homo sapiens;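 further: cell growth inhibition measured by a viability assay in human KYSE-450 cells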
Description: SANGER: Inhibition of human KYSE-450 cell growth in a cell viability assay.

Compound | IC50 [µM]
OC[C@H](Cc1ccccc1)Nc1nc(Oc2ccc3c(c2)CCC3)nc2c1ncn2Cc1ccc(-c2ccccc2)cc1 | 8.47

test system: OE19; experiment: cells; format: functional, cell-based; settings: Homo sapiens;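 further: growth inhibition of OE19 cells, measured through a cell viability read-out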
Description: SANGER: Inhibition of human OE19 cell growth in a cell viability assay.

Compound | IC50 [µM]
OC[C@H](Cc1ccccc1)Nc1nc(Oc2ccc3c(c2)CCC3)nc2c1ncn2Cc1ccc(-c2ccccc2)cc1 | > 10.2

test system: U-118-MG; experiment: cells; format: functional, cell-based; settings: Homo sapiens
Description: SANGER: Inhibition of human U-118-MG cell growth in a cell viability assay.

Compound | IC50 [µM]
OC[C@H](Cc1ccccc1)Nc1nc(Oc2ccc3c(c2)CCC3)nc2c1ncn2Cc1ccc(-c2ccccc2)cc1 | > 10.2

test system: OPM-2; experiment: cells; format: functional, cell-based, Homo sapiens; settings: Homo sapiens, OPM-2;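 further: growth of OPM-2 cells measured with a viability assay, IC50 for suppression of proliferation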
Description: SANGER: Inhibition of human OPM-2 cell growth in a cell viability assay.

Compound | IC50 [µM]
OC[C@H](Cc1ccccc1)Nc1nc(Oc2ccc3c(c2)CCC3)nc2c1ncn2Cc1ccc(-c2ccccc2)cc1 | > 10.2

test system: SiHa; experiment: cells; format: functional, cell-based; settings: Homo sapiens;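 further: Viability-based readout of growth inhibition in SiHa cells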
Description: SANGER: Inhibition of human SiHa cell growth in a cell viability assay.

Compound | IC50 [µM]
OC[C@H](Cc1ccccc1)Nc1nc(Oc2ccc3c(c2)CCC3)nc2c1ncn2Cc1ccc(-c2ccccc2)cc1 | > 10.2

test system: RPMI 8402; experiment: SANGER: Inhibition of human RPMI-8402 cell growth in a cell viability assay.; format: functional, cell-based; settings: Homo sapiens, RPMI 8402

Compound | IC50 [µM]
OC[C@H](Cc1ccccc1)Nc1nc(Oc2ccc3c(c2)CCC3)nc2c1ncn2Cc1ccc(-c2ccccc2)cc1 | > 10.2

test system: ESS-1; experiment: cells; format: functional, cell-based; settings: Homo sapiens;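 further: growth inhibition of human ESS-1 cells, read out by a cell viability assay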
Description: SANGER: Inhibition of human ESS-1 cell growth in a cell viability assay.

Compound | IC50 [µM]
OC[C@H](Cc1ccccc1)Nc1nc(Oc2ccc3c(c2)CCC3)nc2c1ncn2Cc1ccc(-c2ccccc2)cc1 | > 10.2

test system: AGS; experiment: cells; format: functional, cell-based; settings: Homo sapiens;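 further: growth inhibition of AGS cells, determined with a cell viability assay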
Description: SANGER: Inhibition of human AGS cell growth in a cell viability assay.

Compound | IC50 [µM]
OC[C@H](Cc1ccccc1)Nc1nc(Oc2ccc3c(c2)CCC3)nc2c1ncn2Cc1ccc(-c2ccccc2)cc1 | 6.71

test system: A 172; experiment: cells; format: functional, cell-based; settings: Homo sapiens;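 further: growth inhibition of A172 cells, measured with a cell viability readout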
Description: SANGER: Inhibition of human A172 cell growth in a cell viability assay.

Compound | IC50 [µM]
OC[C@H](Cc1ccccc1)Nc1nc(Oc2ccc3c(c2)CCC3)nc2c1ncn2Cc1ccc(-c2ccccc2)cc1 | 6.16

test system: EHEB; experiment: cells; format: functional, cell-based; settings: Homo sapiens;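 further: growth inhibition of human EHEB cells, read out with a cell viability assay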
Description: SANGER: Inhibition of human EHEB cell growth in a cell viability assay.

Compound | IC50 [µM]
OC[C@H](Cc1ccccc1)Nc1nc(Oc2ccc3c(c2)CCC3)nc2c1ncn2Cc1ccc(-c2ccccc2)cc1 | > 10.2

test system: KMS-12-PE; experiment: cells; format: functional, cell-based, Homo sapiens; settings: Homo sapiens, KMS-12-PE;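 further: growth inhibition of human KMS-12-PE cells, measured with a cell viability assay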
Description: SANGER: Inhibition of human KMS-12-PE cell growth in a cell viability assay.

Compound | IC50 [µM]
OC[C@H](Cc1ccccc1)Nc1nc(Oc2ccc3c(c2)CCC3)nc2c1ncn2Cc1ccc(-c2ccccc2)cc1 | > 10.2

test system: GMS-10; experiment: cells; format: functional, cell-based; settings: Homo sapiens;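 further: growth inhibition of GMS-10 cells, read out as cell viability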
Description: SANGER: Inhibition of human GMS-10 cell growth in a cell viability assay.

Compound | IC50 [µM]
OC[C@H](Cc1ccccc1)Nc1nc(Oc2ccc3c(c2)CCC3)nc2c1ncn2Cc1ccc(-c2ccccc2)cc1 | > 10.2

test system: TALL-1; experiment: cells; format: functional, cell-based, Homo sapiens; settings: Homo sapiens, TALL-1;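 further: growth inhibition of cultured human TALL-1 cells, read out by a cell viability assay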
Description: SANGER: Inhibition of human TALL-1 cell growth in a cell viability assay.

Compound | IC50 [µM]
OC[C@H](Cc1ccccc1)Nc1nc(Oc2ccc3c(c2)CCC3)nc2c1ncn2Cc1ccc(-c2ccccc2)cc1 | > 10.2

test system: COLO-679; experiment: cells; format: functional, cell-based; settings: Homo sapiens
Description: SANGER: Inhibition of human COLO-679 cell growth in a cell viability assay.

Compound | IC50 [µM]
OC[C@H](Cc1ccccc1)Nc1nc(Oc2ccc3c(c2)CCC3)nc2c1ncn2Cc1ccc(-c2ccccc2)cc1 | 2.66

test system: KYSE-410; experiment: cells; format: functional, cell-based; settings: Homo sapiens;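 further: growth inhibition of KYSE-410 cells, measured through a cell viability readout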
Description: SANGER: Inhibition of human KYSE-410 cell growth in a cell viability assay.

Compound | IC50 [µM]
OC[C@H](Cc1ccccc1)Nc1nc(Oc2ccc3c(c2)CCC3)nc2c1ncn2Cc1ccc(-c2ccccc2)cc1 | 6.97

test system: RPMI-7951; experiment: cells; format: functional, cell-based; settings: Homo sapiens
Description: SANGER: Inhibition of human RPMI-7951 cell growth in a cell viability assay.

Compound | IC50 [µM]
OC[C@H](Cc1ccccc1)Nc1nc(Oc2ccc3c(c2)CCC3)nc2c1ncn2Cc1ccc(-c2ccccc2)cc1 | 1.41

test system: SN12C; experiment: cells; format: functional, cell-based; settings: Homo sapiens;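 further: growth inhibition of human SN12C cells, measured by a cell viability assay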
Description: SANGER: Inhibition of human SN12C cell growth in a cell viability assay.

Compound | IC50 [µM]
OC[C@H](Cc1ccccc1)Nc1nc(Oc2ccc3c(c2)CCC3)nc2c1ncn2Cc1ccc(-c2ccccc2)cc1 | > 10.2

test system: ST486; experiment: SANGER: Inhibition of human ST486 cell growth in a cell viability assay.; format: functional, cell-based; settings: Homo sapiens, ST486

Compound | IC50 [µM]
OC[C@H](Cc1ccccc1)Nc1nc(Oc2ccc3c(c2)CCC3)nc2c1ncn2Cc1ccc(-c2ccccc2)cc1 | > 10.2

test system: MDA-MB-175-VII; experiment: cells; format: functional, cell-based; settings: Homo sapiens

Compound | IC50 [µM]
OC[C@H](Cc1ccccc1)Nc1nc(Oc2ccc3c(c2)CCC3)nc2c1ncn2Cc1ccc(-c2ccccc2)cc1 | > 10.2

test system: MDA-MB-415; experiment: cells; format: functional, cell-based; settings: Homo sapiens

Compound | IC50 [µM]
OC[C@H](Cc1ccccc1)Nc1nc(Oc2ccc3c(c2)CCC3)nc2c1ncn2Cc1ccc(-c2ccccc2)cc1 | > 10.2

test system: CP66-MEL; experiment: cells; format: functional, cell-based; settings: Homo sapiens;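 further: growth inhibition of CP66-MEL cells determined in a cell viability assay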
Description: SANGER: Inhibition of human CP66-MEL cell growth in a cell viability assay.

Compound | IC50 [µM]
OC[C@H](Cc1ccccc1)Nc1nc(Oc2ccc3c(c2)CCC3)nc2c1ncn2Cc1ccc(-c2ccccc2)cc1 | > 10.2

test system: BL-70; experiment: SANGER: Inhibition of human BL-70 cell growth in a cell viability assay.; format: functional, cell-based; settings: Homo sapiens, BL-70

Compound | IC50 [µM]
OC[C@H](Cc1ccccc1)Nc1nc(Oc2ccc3c(c2)CCC3)nc2c1ncn2Cc1ccc(-c2ccccc2)cc1 | 4.13

test system: CAL-12T; experiment: cells; format: functional, cell-based; settings: Homo sapiens;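 further: growth inhibition of human CAL-12T cells, read out with a cell viability assay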
Description: SANGER: Inhibition of human CAL-12T cell growth in a cell viability assay.

Compound | IC50 [µM]
OC[C@H](Cc1ccccc1)Nc1nc(Oc2ccc3c(c2)CCC3)nc2c1ncn2Cc1ccc(-c2ccccc2)cc1 | 2.48

test system: BT-20; experiment: cells; format: functional, cell-based; settings: Homo sapiens;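 further: cell viability assay measuring suppression of growth in human BT-20 cells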
Description: SANGER: Inhibition of human BT-20 cell growth in a cell viability assay.

Compound | IC50 [µM]
OC[C@H](Cc1ccccc1)Nc1nc(Oc2ccc3c(c2)CCC3)nc2c1ncn2Cc1ccc(-c2ccccc2)cc1 | > 10.2

test system: HT-1080; experiment: cells; format: functional, cell-based; settings: Homo sapiens
Description: SANGER: Inhibition of human HT-1080 cell growth in a cell viability assay.

Compound | IC50 [µM]
OC[C@H](Cc1ccccc1)Nc1nc(Oc2ccc3c(c2)CCC3)nc2c1ncn2Cc1ccc(-c2ccccc2)cc1 | 5.13

test system: 8505C; experiment: cells; format: functional, cell-based; settings: Homo sapiens
Description: SANGER: Inhibition of human 8505C cell growth in a cell viability assay.

Compound | IC50 [µM]
OC[C@H](Cc1ccccc1)Nc1nc(Oc2ccc3c(c2)CCC3)nc2c1ncn2Cc1ccc(-c2ccccc2)cc1 | 4.57

test system: NCI-H2171; experiment: cells; format: functional, cell-based, Homo sapiens; settings: Homo sapiens, NCI-H2171;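 further: growth inhibition of human NCI-H2171 cells, read out by a cell viability assay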
Description: SANGER: Inhibition of human NCI-H2171 cell growth in a cell viability assay.

Compound | IC50 [µM]
OC[C@H](Cc1ccccc1)Nc1nc(Oc2ccc3c(c2)CCC3)nc2c1ncn2Cc1ccc(-c2ccccc2)cc1 | > 10.2

test system: SJRH30; experiment: cells; format: functional, cell-based; settings: Homo sapiens;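 further: growth inhibition of human SJRH30 cells, read out with a cell viability assay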
Description: SANGER: Inhibition of human SJRH30 cell growth in a cell viability assay.

Compound | IC50 [µM]
OC[C@H](Cc1ccccc1)Nc1nc(Oc2ccc3c(c2)CCC3)nc2c1ncn2Cc1ccc(-c2ccccc2)cc1 | > 10.2

test system: COLO-678; experiment: cells; format: functional, cell-based; settings: Homo sapiens
Description: SANGER: Inhibition of human COLO-678 cell growth in a cell viability assay.

Compound | IC50 [µM]
OC[C@H](Cc1ccccc1)Nc1nc(Oc2ccc3c(c2)CCC3)nc2c1ncn2Cc1ccc(-c2ccccc2)cc1 | > 10.2

test system: NCI-H345; experiment: cells; format: functional, cell-based, Homo sapiens; settings: Homo sapiens, NCI-H345;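 further: growth inhibition of NCI-H345 cells measured with a cell viability assay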
Description: SANGER: Inhibition of human NCI-H345 cell growth in a cell viability assay.

Compound | IC50 [µM]
OC[C@H](Cc1ccccc1)Nc1nc(Oc2ccc3c(c2)CCC3)nc2c1ncn2Cc1ccc(-c2ccccc2)cc1 | > 10.2

test system: SK-MM-2; experiment: cells; format: functional, cell-based, Homo sapiens; settings: Homo sapiens, SK-MM-2;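 further: growth inhibition of human SK-MM-2 cells, read out with a cell viability assay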
Description: SANGER: Inhibition of human SK-MM-2 cell growth in a cell viability assay.

Compound | IC50 [µM]
OC[C@H](Cc1ccccc1)Nc1nc(Oc2ccc3c(c2)CCC3)nc2c1ncn2Cc1ccc(-c2ccccc2)cc1 | > 10.2

test system: NCI-H1522; experiment: cells; format: functional, cell-based, Homo sapiens; settings: Homo sapiens, NCI-H1522;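 further: growth inhibition of NCI-H1522 cells, read out with a cell viability assay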
Description: SANGER: Inhibition of human NCI-H1522 cell growth in a cell viability assay.

Compound | IC50 [µM]
OC[C@H](Cc1ccccc1)Nc1nc(Oc2ccc3c(c2)CCC3)nc2c1ncn2Cc1ccc(-c2ccccc2)cc1 | > 10.2

test system: PANC-03-27; experiment: cells; format: functional, cell-based; settings: Homo sapiens
Description: SANGER: Inhibition of human PANC-03-27 cell growth in a cell viability assay.

Compound | IC50 [µM]
OC[C@H](Cc1ccccc1)Nc1nc(Oc2ccc3c(c2)CCC3)nc2c1ncn2Cc1ccc(-c2ccccc2)cc1 | 7.89

test system: SW756; experiment: cells; format: functional, cell-based; settings: Homo sapiens;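 further: growth inhibition of human SW756 cells, read out with a cell viability assay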
Description: SANGER: Inhibition of human SW756 cell growth in a cell viability assay.

Compound | IC50 [µM]
OC[C@H](Cc1ccccc1)Nc1nc(Oc2ccc3c(c2)CCC3)nc2c1ncn2Cc1ccc(-c2ccccc2)cc1 | > 10.2

test system: COLO-680N; experiment: cells; format: functional, cell-based; settings: Homo sapiens;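 further: cell viability assay used to measure inhibition of COLO-680N cell growth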
Description: SANGER: Inhibition of human COLO-680N cell growth in a cell viability assay.

Compound | IC50 [µM]
OC[C@H](Cc1ccccc1)Nc1nc(Oc2ccc3c(c2)CCC3)nc2c1ncn2Cc1ccc(-c2ccccc2)cc1 | > 10.2

test system: COR-L105; experiment: cells; format: functional, cell-based; settings: Homo sapiens
Description: SANGER: Inhibition of human COR-L105 cell growth in a cell viability assay.

Compound | IC50 [µM]
OC[C@H](Cc1ccccc1)Nc1nc(Oc2ccc3c(c2)CCC3)nc2c1ncn2Cc1ccc(-c2ccccc2)cc1 | > 10.2

test system: Hs-578T; experiment: cells; format: functional, cell-based; settings: Homo sapiens
Description: SANGER: Inhibition of human Hs-578-T cell growth in a cell viability assay.

Compound | IC50 [µM]
OC[C@H](Cc1ccccc1)Nc1nc(Oc2ccc3c(c2)CCC3)nc2c1ncn2Cc1ccc(-c2ccccc2)cc1 | > 10.2

test system: MC-CAR; experiment: cells; format: functional, cell-based, Homo sapiens; settings: Homo sapiens, MC-CAR;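 further: growth inhibition of the human MC-CAR cell line, read out by a cell viability assay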
Description: SANGER: Inhibition of human MC-CAR cell growth in a cell viability assay.

Compound | IC50 [µM]
OC[C@H](Cc1ccccc1)Nc1nc(Oc2ccc3c(c2)CCC3)nc2c1ncn2Cc1ccc(-c2ccccc2)cc1 | > 10.2

test system: SKG-IIIa; experiment: cells; format: functional, cell-based; settings: Homo sapiens;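 further: cell growth inhibition, read out with a cell viability assay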
Description: SANGER: Inhibition of human SKG-IIIa cell growth in a cell viability assay.

Compound | IC50 [µM]
OC[C@H](Cc1ccccc1)Nc1nc(Oc2ccc3c(c2)CCC3)nc2c1ncn2Cc1ccc(-c2ccccc2)cc1 | > 10.2

test system: YAPC; experiment: cells; format: functional, cell-based; settings: Homo sapiens;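 further: growth inhibition of YAPC cells, measured with a cell viability assay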
Description: SANGER: Inhibition of human YAPC cell growth in a cell viability assay.

Compound | IC50 [µM]
OC[C@H](Cc1ccccc1)Nc1nc(Oc2ccc3c(c2)CCC3)nc2c1ncn2Cc1ccc(-c2ccccc2)cc1 | > 10.2

test system: AN3-CA; experiment: cells; format: functional, cell-based; settings: Homo sapiens;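 further: growth inhibition of human AN3-CA cells measured by a cell viability assay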
Description: SANGER: Inhibition of human AN3-CA cell growth in a cell viability assay.

Compound | IC50 [µM]
OC[C@H](Cc1ccccc1)Nc1nc(Oc2ccc3c(c2)CCC3)nc2c1ncn2Cc1ccc(-c2ccccc2)cc1 | > 10.2

test system: HSC-4; experiment: cells; format: functional, cell-based; settings: Homo sapiens;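 further: growth inhibition of human HSC-4 cells, read out with a cell viability assay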
Description: SANGER: Inhibition of human HSC-4 cell growth in a cell viability assay.

Compound | IC50 [µM]
OC[C@H](Cc1ccccc1)Nc1nc(Oc2ccc3c(c2)CCC3)nc2c1ncn2Cc1ccc(-c2ccccc2)cc1 | > 10.2

test system: HCC1419; experiment: cells; format: functional, cell-based; settings: Homo sapiens;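 further: growth inhibition of human HCC1419 cells, read out as cell viability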
Description: SANGER: Inhibition of human HCC1419 cell growth in a cell viability assay.

Compound | IC50 [µM]
OC[C@H](Cc1ccccc1)Nc1nc(Oc2ccc3c(c2)CCC3)nc2c1ncn2Cc1ccc(-c2ccccc2)cc1 | > 10.2

test system: NCI-H2009; experiment: cells; format: functional, cell-based; settings: Homo sapiens;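 further: cell viability assay measuring inhibition of NCI-H2009 cell growth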
Description: SANGER: Inhibition of human NCI-H2009 cell growth in a cell viability assay.

Compound | IC50 [µM]
OC[C@H](Cc1ccccc1)Nc1nc(Oc2ccc3c(c2)CCC3)nc2c1ncn2Cc1ccc(-c2ccccc2)cc1 | > 10.2

test system: NUGC-3; experiment: cells; format: functional, cell-based; settings: Homo sapiens;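 further: growth inhibition of human NUGC-3 cells, read out with a cell viability assay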
Description: SANGER: Inhibition of human NUGC-3 cell growth in a cell viability assay.

Compound | IC50 [µM]
OC[C@H](Cc1ccccc1)Nc1nc(Oc2ccc3c(c2)CCC3)nc2c1ncn2Cc1ccc(-c2ccccc2)cc1 | > 10.2

test system: G-361; experiment: cells; format: functional, cell-based; settings: Homo sapiens

Compound | IC50 [µM]
OC[C@H](Cc1ccccc1)Nc1nc(Oc2ccc3c(c2)CCC3)nc2c1ncn2Cc1ccc(-c2ccccc2)cc1 | 2.06

test system: DBTRG-05MG; experiment: cells; format: functional, cell-based; settings: Homo sapiens;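 further: cell viability assay measuring growth inhibition of human DBTRG-05MG cells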
Description: SANGER: Inhibition of human DBTRG-05MG cell growth in a cell viability assay.

Compound | IC50 [µM]
OC[C@H](Cc1ccccc1)Nc1nc(Oc2ccc3c(c2)CCC3)nc2c1ncn2Cc1ccc(-c2ccccc2)cc1 | > 10.2

test system: TE-441-T; experiment: cells; format: functional, cell-based, Homo sapiens; settings: Homo sapiens, TE-441-T
Description: SANGER: Inhibition of human TE-441-T cell growth in a cell viability assay.

Compound | IC50 [µM]
OC[C@H](Cc1ccccc1)Nc1nc(Oc2ccc3c(c2)CCC3)nc2c1ncn2Cc1ccc(-c2ccccc2)cc1 | > 10.2
